Measurements published in patent US20110045101A1, “FUNGICIDAL SUBSTITUTED AZOLES” (E.I. Du Pont De Nemours and Company, priority 2009, published 2011).
Marks after values point to notes of the source that are not given here.

Assays:
Assay type in all cases: in vivo
Conditions in all cases: 100 = 100% disease control
Botrytis cinerea = experiment: Test C: tomato Botrytis on tomato seedlings, sprayed the day before inoculation, visual disease rating
Method in brief: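 Compounds were dissolved in acetone (3% of final volume), then suspended in 50/50 acetone/purified water containing 250 ppm polyhydric alcohol ester surfactant. Suspensions were sprayed to run-off on tomato seedlings at 200 ppm, equivalent to 500 g/ha, or at 40 ppm where marked.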

[1] = tested on: Erysiphe graminis f. sp. tritici; experiment: Test J: wheat powdery mildew on wheat seedlings, sprayed the day before inoculation, visual disease rating
Method in brief: (§1)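 Compounds were dissolved in acetone (3% of final volume), then suspended in 50/50 acetone/purified water with 250 ppm Trem® 014 surfactant. Suspensions at 200 ppm (some at 40 ppm) were sprayed to run-off, 200 ppm being equivalent to 500 g/ha.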

Septoria nodorum = experiment: Test F: wheat glume blotch on wheat seedlings, sprayed the day before inoculation, visual disease rating
Method in brief: as §1

Alternaria solani = experiment: Test D: tomato early blight, sprayed the day before inoculation, visual disease rating
Method in brief: as §1

[2] = tested on: Puccinia recondita f. sp. tritici; experiment: Test I: wheat leaf rust on wheat seedlings, sprayed the day before inoculation, visual disease rating
Method in brief: as §1

[3] = tested on: Puccinia recondita f. sp. tritici; experiment: Test H: wheat leaf rust, test suspension sprayed after inoculation of wheat seedlings, visual disease rating
Method in brief: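 Wheat seedlings inoculated with P. recondita spores, held 24 h saturated at 20 °C, then 2 days in growth chamber at 20 °C; compound suspension (acetone/water with Trem 014) sprayed to run-off afterwards. Rated visually; 200 ppm (≈500 g/ha) unless marked *, which denotes 40 ppm.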

Septoria tritici = experiment: Test G: wheat leaf blotch on wheat seedlings, sprayed the day before inoculation, visual disease rating
Method in brief: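 Visual disease ratings taken 19 days after transfer to a 20° C growth chamber, following 48 h in saturated atmosphere at 24° C. Seedlings had been sprayed to run-off one day before spore inoculation. Dose 200 ppm, or 40 ppm where starred.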

[4] = 40 ppm (marked *), 0 = no control
[5] = 200 ppm, 0 = no control relative to controls

| SMILES | Test C disease control rating (Botrytis cinerea; 40 ppm (marked *)) | Test J disease control rating ([1]; 40 ppm (marked *)) | Test F disease control rating (Septoria nodorum; 40 ppm (marked *)) | Test D disease control rating (Alternaria solani; 40 ppm (marked *)) | Test I disease control rating ([2]; 40 ppm (marked *)) | Test H disease control rating ([3]; 40 ppm (marked *)) | Test G disease control rating (Septoria tritici; 40 ppm (marked *)) | Test C disease control rating (Botrytis cinerea; [5]) | Test J disease control rating [1, 5] | Test F disease control rating (Septoria nodorum; [5]) | Test D disease control rating (Alternaria solani; [5]) | Test I disease control rating [2, 5] | Test H disease control rating [3, 5] | Test G disease control rating (Septoria tritici; [5]) | further results |
| --- | --- | --- | --- | --- | --- | --- | --- | --- | --- | --- | --- | --- | --- | --- | --- |
| Fc1cc(-n2c(Br)nc(Br)c2-c2c(F)ccc(F)c2F)ccc1Cl [compound 382] |  |  |  |  |  |  |  |  |  |  |  |  |  |  | Test C disease control rating (Botrytis cinerea; [4]): 100* %; Test J disease control rating [1, 4]: 97* %; Test F disease control rating (Septoria nodorum; [4]): 0* %; Test D disease control rating (Alternaria solani; [4]): 99* %; Test I disease control rating [2, 4]: 95* %; Test H disease control rating [3, 4]: 0* %; Test G disease control rating (Septoria tritici; [4]): 96* % |
| COc1cc(F)c(-c2c(Cl)ncn2Cc2ccc(Cl)cc2)c(F)c1 [compound 268] |  |  |  |  |  |  |  |  |  |  |  |  |  |  | Test C disease control rating (Botrytis cinerea; 200 ppm, 0 = no control): 99%; Test J disease control rating ([1]; 200 ppm, 0 = no control): 75%; Test F disease control rating (Septoria nodorum; 200 ppm, 0 = no control): 98%; Test D disease control rating (Alternaria solani; 200 ppm, 0 = no control): 100%; Test I disease control rating ([2]; 200 ppm, 0 = no control): 99%; Test H disease control rating ([3]; 200 ppm, 0 = no control): 63%; Test G disease control rating (Septoria tritici; 200 ppm, 0 = no control): 87% |
| Fc1cc(-n2c(Cl)nc(Br)c2-c2c(F)ccc(F)c2Cl)ccc1Cl [compound 463] | 99* % | 99* % | 0* % | 99* % | 100* % | 0* % | 95* % |  |  |  |  |  |  |  |  |
| CN(C)c1ccc(-n2cnc(Cl)c2-c2c(F)cccc2F)cc1Cl [compound 650] | 0* % | 0* % | 0* % | 0* % | 0* % | 9* % | 0* % |  |  |  |  |  |  |  |  |
| COc1ccc(F)c(-c2c(Cl)nc(Br)n2-c2ccc(Cl)c(F)c2)c1F [compound 317] |  |  |  |  |  |  |  | 100% | 100% | 100% | 100% | 99% | 17% | 95% |  |
| COc1cc(F)c(-c2c(Cl)nc(C)n2-c2ccc(OC(F)F)cc2)c(F)c1 [compound 569] |  |  |  |  |  |  |  | 100% | 99% | 100% | 100% | 100% | 84% | 97% |  |
| Fc1ccc(-n2c(Br)nc(Br)c2-c2c(F)cc(F)cc2F)cc1 [compound 462] | 100* % | 99* % | 0* % | 100* % | 78* % | 0* % | 96* % |  |  |  |  |  |  |  |  |
| Fc1cc(-n2cnc(Cl)c2-c2c(F)cncc2F)ccc1Cl [compound 594] |  |  |  |  |  |  |  | 100% | 100% | 0% | 99% | 99% | 78% | 94% |  |
| COc1cc(F)c(-c2c(Cl)ncn2-c2ccccc2)c(F)c1 [compound 420] |  |  |  |  |  |  |  | 100% | 100% | 99% | 100% | 100% | 0% | 100% |  |
| COc1cc(OC)cc(-n2c(Br)nc(C)c2-c2c(F)cc(OC)cc2F)c1 [compound 657] | 99* % | 96* % | 99* % | 99* % | 100* % | 100* % | 99* % |  |  |  |  |  |  |  |  |
| COc1cc(F)c(-n2c(Br)nc(Cl)c2-c2ccc(Cl)cc2)c(F)c1 [compound 373] |  |  |  |  |  |  |  |  |  |  |  |  |  |  | Test C disease control rating (Botrytis cinerea; [4]): 99* %; Test J disease control rating [1, 4]: 99* %; Test F disease control rating (Septoria nodorum; [4]): 60* %; Test D disease control rating (Alternaria solani; [4]): 98* %; Test I disease control rating [2, 4]: 95* %; Test H disease control rating [3, 4]: 0* %; Test G disease control rating (Septoria tritici; [4]): 92* % |
| Cc1ccc(-n2c(Br)nc(Br)c2-c2c(F)ccc(F)c2Cl)cc1 [compound 460] | 99* % | 96* % | 0* % | 85* % | 93* % | 0* % | 97* % |  |  |  |  |  |  |  |  |
| COc1ccc(F)c(-c2c(Cl)nc(C)n2-c2ccc(C#N)cc2)c1F [compound 615] |  |  |  |  |  |  |  | 100% | 100% | 0% | 100% | 99% | 0% | 100% |  |
| Fc1cc(-n2c(Cl)nc(CCl)c2-c2cncc(Br)c2)ccc1Cl [compound 355] |  |  |  |  |  |  |  | 0% | 0% | 0% | 0% | 28% | 0% | 3% |  |
| Cc1nc(Cl)c(-c2ccc(Cl)cc2)n1-c1ccc(F)cc1Cl [compound 422] |  |  |  |  |  |  |  | 100% | 100% | 60% | 100% | 99% | 0% | 100% |  |
| CN(C)c1ccc(-n2cnc(N(C)C)c2-c2c(F)cccc2F)cc1 [compound 634] | 0* % | 0* % | 0* % | 0* % | 0* % | 0* % | 0* % |  |  |  |  |  |  |  |  |
| Fc1cc(F)c(-c2c(Cl)nc(Br)n2-c2ccc(OC(F)F)cc2)c(F)c1 [compound 604] |  |  |  |  |  |  |  | 99% | 100% | 100% | 100% | 100% | 97% | 99% |  |
| COc1cc(F)c(-c2c(Cl)nc(Cl)n2-c2ccc(OC(F)(F)F)cc2)c(F)c1 [compound 568] |  |  |  |  |  |  |  | 99% | 100% | 98% | 100% | 100% | 72% | 94% |  |
| Fc1ccc(-n2c(Br)nc(Cl)c2-c2ccc(Cl)c(F)c2)c(Cl)c1 [compound 328] |  |  |  |  |  |  |  | 100% | 98% | 0% | 98% | 94% | 9% | 95% |  |
| COc1cc(F)c(-c2c(Br)nc(Br)n2-c2ccc(C)cc2)c(F)c1 [compound 524] | 99* % |  | 60* % | 100* % | 99* % | 85* % | 98* % |  | 97% |  |  |  |  |  |  |
